# Results: patent US20220087996A1, “Histone acetylase p300 inhibitor and use thereof” (HINOVA PHARMACEUTICALS INC., priority 2018, published 2022)
# Where two headings read alike, the source gives them in different places.
# System: CWR22RV1 cells
# Experiment: Inhibition of proliferation of CWR22RV1 cells (CCK-8)
# Type: cell-based, human
# Details: 6 days culture
# Method in brief: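 Proliferation read-out was CCK-8 absorbance at 450 nm after 2.5 h, following 6-day culture with compound. Each well held 1500 CWR22RV1 cells; the 3-fold, 9-point series started at a final 10 μM in 0.1% DMSO. Dose-response-inhibition fit gave the IC50.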
# [1] = Homo sapiens, CWR22Rv1, 144 h, read-out: IC50 against CWR22RV1 cells
# [2] = Homo sapiens, CWR22Rv1, 144 h, read-out: IC50 against CWR22RV1 cells (text)
SMILES,IC50 [1] [µM],IC50 [2] [µM],IC50 (read-out: IC50 against CWR22RV1 cells) [µM]
"CNC(=O)Nc1ccc2c(c1)CC[C@@]21OC(=O)N(CC(=O)N2[C@@H](C)CC[C@H]2C2CCCCC2)C1=O [Example 357, 1-((R)-3′-(2-((2S,5S)-2-cyclohexyl-5-methylpyrrolidin-1-yl)-2-oxoethyl)-2′,4′-dioxo-2,3-dihydrospiro[indene-1,5′-oxazolidine]-5-yl)-3-methylurea]",≤ 0.5,≤ 0.5,
"CNC(=O)Nc1ccc2c(c1)CC[C@@]21OC(=O)N(CC(=O)N2C(C)CCC2c2ccc(F)c(Cl)c2)C1=O (stereo partly drawn) [Example 359, 1-((1R)-3′-(2-(2-(3-chloro-4-fluorophenyl)-5-methylpyrrolidin-1-yl)-2-oxoethyl)-2′,4′-dioxo-2,3-dihydrospiro[indene-1,5′-oxazolidine]-5-yl)-3-methylurea]",≤ 0.5,≤ 0.5,
"CNC(=O)Nc1ccc2c(c1)CCC21OC(=O)N(CC(=O)N2[C@@H](CO)CC[C@H]2c2ccc(F)cc2)C1=O (stereo partly drawn) [Example 361, 1-(3′-(2-((2S,5R)-2-(4-fluorophenyl)-5-(hydroxymethyl)pyrrolidin-1-yl)-2-oxoethyl)-2′,4′-dioxo-2,3-dihydrospiro[indene-1,5′-oxazolidine]-5-yl)-3-methylurea]",0.5 to 2,,
"CNC(=O)Nc1ccc2c(c1)CC[C@@]21OC(=O)N(CC(=O)N2C(c3ccc(F)cc3)CC[C@H]2CO)C1=O (stereo partly drawn) [Example 363, 1-((1R)-3′-(2-((5S)-2-(4-fluorophenyl)-5-(hydroxymethyl)pyrrolidin-1-yl)-2-oxoethyl)-2′,4′-dioxo-2,3-dihydrospiro[indene-1,5′-oxazolidine]-5-yl)-3-methylurea]",> 2,,
"CNC(=O)Nc1ccc2c(c1)CC[C@@]21OC(=O)N(CC(=O)N2C(c3ccc(F)cc3)CCC2(C)C)C1=O (stereo partly drawn) [Example 365, 1-((1R)-3′-(2-(5-(4-fluorophenyl)-2,2-dimethylpyrrolidin-1-yl)-2-oxoethyl)-2′,4′-dioxo-2,3-dihydrospiro[indene-1,5′-oxazolidine]-5-yl)-3-methylurea]",0.5 to 2,,
"CNC(=O)Nc1ccc2c(c1)CC[C@@]21OC(=O)N(CC(=O)N2C(c3ccc(F)c(F)c3)CCC2(C)C)C1=O (stereo partly drawn) [Example 366, 1-((1R)-3′-(2-(5-(3,4-difluorophenyl)-2,2-dimethylpyrrolidin-1-yl)-2-oxoethyl)-2′,4′-dioxo-2,3-dihydrospiro[indene-1,5′-oxazolidine]-5-yl)-3-methylurea]",0.5 to 2,,
"C=C[C@H]1CC[C@@H](c2ccc(F)cc2)N1C(=O)CN1C(=O)O[C@@]2(CCc3cc(NC(=O)NC)ccc32)C1=O [Example 367, 1-((R)-3′-(2-((2S,5R)-2-(4-fluorophenyl)-5-vinylpyrrolidin-1-yl)-2-oxoethyl)-2′,4′-dioxo-2,3-dihydrospiro[indene-1,5′-oxazolidine]-5-yl)-3-methylurea]",0.5 to 2,,
CNC(=O)Nc1ccc2c(c1)CC[C@@]21OC(=O)N(CC(=O)N2C(C)(C)CCCC2(C)C)C1=O [Example 368],> 2,,
"CNC(=O)Nc1ccc2c(c1)C1(CC1)CC21OC(=O)N(CC(=O)N2[C@@H](C)CC[C@H]2c2ccc(F)cc2)C1=O (stereo partly drawn) [Example 373, 1-(3′-(2-((2S,5S)-2-(4-fluorophenyl)-5-methylpyrrolidin-1-yl)-2-oxoethyl)-2′,4′-dioxo-dihydrospiro[cyclopropane-1,1′-indene-3′,5′-oxazolidin]-6′-yl)-3-methylurea]",,,> 2
"CNC(=O)Nc1ccc2c(c1)CC[C@@]21OC(=O)N(CC(=O)N2C(c3ccc(F)c(F)c3)CC[C@@H]2C)C1=O (stereo partly drawn) [Example 374, 1-((R)-3′-(2-((5S)-2-(3,4-difluorophenyl)-5-methylpyrrolidin-1-yl)-2-oxoethyl)-2′,4′-dioxo-2,3-dihydrospiro[indene-1,5′-oxazolidine]-5-yl)-3-methylurea]",> 2,,
"CNC(=O)Nc1ccc2c(c1)CC[C@@]21OC(=O)N(CC(=O)N2C(c3ccncc3)CC[C@@H]2C)C1=O (stereo partly drawn) [Example 375, 1-methyl-3-(3′-(2-((2S)-2-methyl-5-(pyridin-4-yl)pyrrolidin-1-yl)-2-oxoethyl)-2′,4′-dioxo-2,3-dihydrospiro[indene-1,5′-oxazolidine]-5-yl)urea]",> 2,,
"C[C@H]1CC[C@@H](c2ccc(F)cc2)N1C(=O)CN1C(=O)O[C@@]2(CCc3cc(NC(=O)C(F)F)ccc32)C1=O [Example 376, 2,2-difluoro-N—((R)-3′-(2-((2S,5S)-2-(4-fluorophenyl)-5-methylpyrrolidin-1-yl)-2-oxoethyl)-2′,4′-dioxo-2,3-dihydrospiro[indene-1,5′-oxazolidine]-5-yl)acetamide]",0.5 to 2,,
"CO[C@@H](C)C(=O)Nc1ccc2c(c1)CC[C@@]21OC(=O)N(CC(=O)N2[C@@H](C)CC[C@H]2c2ccc(F)cc2)C1=O [Example 377, (S)—N—((R)-3′-(2-((2S,5S)-2-(4-fluorophenyl)-5-methylpyrrolidin-1-yl)-2-oxoethyl)-2′,4′-dioxo-2,3-dihydrospiro[indene-1,5′-oxazolidine]-5-yl)-2-methoxypropionamide]",0.5 to 2,,
"CNC(=O)Nc1ccc2c(c1)CC[C@@]21OC(=O)N(CC(=O)N2C(C)CC[C@H]2CN2CCC3(CC2)CC3(F)F)C1=O (stereo partly drawn) [Example 378, 1-((1R)-3′-(2-((2S)-2-((1,1-difluoro-6-aza-spiro[2.5]octan-6-yl)methyl)-5-methylpyrrolidin-1-yl)-2-oxoethyl)-2′,4′-dioxo-2,3-dihydrospiro[indene-1,5′-oxazolidine]-5-yl)-3-methylurea]",> 2,,
"CNC(=O)Nc1ccc2c(c1)CC[C@@]21OC(=O)N(CC(=O)N2[C@H](CN3CCC4(CC3)CC4(F)F)CC[C@@H]2C)C1=O [Example 379, 1-((R)-3′-(2-((2S,5S)-2-((1,1-difluoro-6-aza-spiro[2.5]octan-6-yl)methyl)-5-methylpyrrolidin-1-yl)-2-oxoethyl)-2′,4′-dioxo-2,3-dihydrospiro[indene-1,5′-oxazolidine]-5-yl)-3-methylurea]",> 2,,
"CNC(=O)Nc1ccc2c(c1F)CC[C@]21OC(=O)N(CC(=O)N2[C@@H](C)CC[C@H]2c2ccc(F)c(F)c2)C1=O [Example 381, 1-((S)-3′-(2-((2S,5S)-2-(3,4-difluorophenyl)-5-methylpyrrolidin-1-yl)-2-oxoethyl)-4-fluoro-2′,4′-dioxo-2,3-dihydrospiro[indene-1,5′-oxazolidine]-5-yl)-3-methylurea]",> 2,,
"CNC(=O)Nc1ccc2c(c1F)CC[C@]21OC(=O)N(CC(=O)N2[C@@H](C)CC[C@H]2c2cc(F)c(F)c(F)c2)C1=O [Example 382, 1-((S)-4-fluoro-3′-(2-((2S,5S)-2-methyl-5-(3,4,5-trifluorophenyl)pyrrolidin-1-yl)-2-oxoethyl)-2′,4′-dioxo-2,3-dihydrospiro[indene-1,5′-oxazolidine]-5-yl)-3-methylurea]",> 2,,
"CNC(=O)Nc1ccc2c(c1F)CC[C@@]21OC(=O)N(CC(=O)N2[C@@H](C)CC[C@H]2c2ccc(F)c(F)c2)C1=O [Example 383, 1-((R)-3′-(2-((2S,5S)-2-(3,4-difluorophenyl)-5-methylpyrrolidin-1-yl)-2-oxoethyl)-4-fluoro-2′,4′-dioxo-2,3-dihydrospiro[indene-1,5′-oxazolidine]-5-yl)-3-methylurea]",> 2,,
"CNC(=O)Nc1ccc2c(c1F)CC[C@@]21OC(=O)N(CC(=O)N2[C@@H](C)CC[C@H]2c2cc(F)c(F)c(F)c2)C1=O [Example 384, 1-((R)-4-fluoro-3′-(2-((2S,5S)-2-methyl-5-(3,4,5-trifluorophenyl)pyrrolidin-1-yl)-2-oxoethyl)-2′,4′-dioxo-2,3-dihydrospiro[indene-1,5′-oxazolidine]-5-yl)-3-methylurea]",> 2,,
"CNC(=O)Nc1cc(F)c2c(c1)CC[C@]21OC(=O)N(CC(=O)N2[C@@H](C)CC[C@H]2c2ccc(F)c(F)c2)C1=O [Example 385, 1-((S)-3′-(2-((2S,5S)-2-(3,4-difluorophenyl)-5-methylpyrrolidin-1-yl)-2-oxoethyl)-7-fluoro-2′,4′-dioxo-2,3-dihydrospiro[indene-1,5′-oxazolidine]-5-yl)-3-methylurea]",> 2,,
"CNC(=O)Nc1cc(F)c2c(c1)CC[C@]21OC(=O)N(CC(=O)N2[C@@H](C)CC[C@H]2c2cc(F)c(F)c(F)c2)C1=O [Example 386, 1-((S)-7-fluoro-3′-(2-((2S,5S)-2-methyl-5-(3,4,5-trifluorophenyl)pyrrolidin-1-yl)-2-oxoethyl)-2′,4′-dioxo-2,3-dihydrospiro[indene-1,5′-oxazolidine]-5-yl)-3-methylurea]",> 2,,
"CNC(=O)Nc1cc(F)c2c(c1)CC[C@@]21OC(=O)N(CC(=O)N2[C@@H](C)CC[C@H]2c2ccc(F)c(F)c2)C1=O [Example 387, 1-((R)-3′-(2-((2S,5S)-2-(3,4-difluorophenyl)-5-methylpyrrolidin-1-yl)-2-oxoethyl)-7-fluoro-2′,4′-dioxo-2,3-dihydrospiro[indene-1,5′-oxazolidine]-5-yl)-3-methylurea]",0.5 to 2,,
CNC(=O)Nc1cc(F)c2c(c1)CC[C@@]21OC(=O)N(CC(=O)N2[C@@H](C)CC[C@H]2c2cc(F)c(F)c(F)c2)C1=O [Example 388],> 2,,
"CNC(=O)Nc1cc2c(cc1F)[C@]1(CC2)OC(=O)N(CC(=O)N2[C@@H](C)CC[C@H]2c2ccc(F)c(F)c2)C1=O [Example 391, 1-((S)-3′-(2-((2S,5S)-2-(3,4-difluorophenyl)-5-methylpyrrolidin-1-yl)-2-oxoethyl)-6-fluoro-2′,4′-dioxo-2,3-dihydrospiro[indene-1,5′-oxazolidine]-5-yl)-3-methylurea]",> 2,,
CNC(=O)Nc1cc2c(cc1F)[C@]1(CC2)OC(=O)N(CC(=O)N2[C@@H](C)CC[C@H]2c2cc(F)c(F)c(F)c2)C1=O [Example 392],0.5 to 2,,
CNC(=O)Nc1ccc2c(c1)CC[C@@]21OC(=O)N(CC(=O)N2CCC[C@H]2c2ccccc2OC)C1=O [compound 339],> 2,,
CCc1cc(F)ccc1C1CCC(C)N1C(=O)CN1C(=O)O[C@@]2(CCc3cc(NC(=O)NC)ccc32)C1=O (stereo partly drawn) [compound 358],0.5 to 2,,
C[C@H]1CC[C@@H](c2ccc(F)cc2)N1C(=O)CN1C(=O)O[C@@]2(CCc3cc(N)ccc32)C1=O [compound 372],> 2,,
